Measured values taken from ChEMBL document CHEMBL1132264, “Low-molecular-weight anti-HIV-1 peptides from the amino-terminal sequence of RANTES: possible lead compounds for coreceptor-directed anti-HIV-1 agents” (1999).
Where a SMILES comes first, the peptide text is derived from it.

What was measured:
[1] = tested on: Human immunodeficiency virus 1; assay: Anti-HIV-1 activity of phytohemagglutininin activated peripheral blood mononuclear cells infected with the macrophage-tropic HIV-1 virus (JRCSF) at 100 nM; format: functional
[2] = tested on: Human immunodeficiency virus 1; assay: Anti-HIV-1 activity of phytohemagglutininin activated peripheral blood mononuclear cells infected with the macrophage-tropic HIV-1 virus (JRCSF) at 10 nM; format: functional

Row | SMILES | inhibition at 0.1 µM [1] [%] | inhibition at 0.01 µM [2] [%]
1 | C[C@H](NC(=O)[C@@H]1CCCN1C(=O)[C@@H](NC(=O)[C@@H](NC(=O)[C@@H](N)CC(=O)O)[C@@H](C)O)[C@@H](C)O)C(=O)O (H-DTTPA-OH) | 29 | 18
2 | C[C@H](NC(=O)[C@@H]1CCCN1C(=O)[C@@H](NC(=O)[C@@H](NC(=O)[C@H](CC(=O)O)NC(=O)[C@H](CO)NC(=O)[C@H](CO)NC(=O)[C@H](Cc1ccc(O)cc1)NC(=O)[C@@H]1CCCN1)[C@@H](C)O)[C@@H](C)O)C(=O)O [PYSSDTTPA] (H-PYSSDTTPA-OH) | 39 | 24
3 | CC(=O)N[C@@H](CC(=O)O)C(=O)N[C@H](C(=O)N[C@H](C(=O)N1CCC[C@H]1C(=O)N[C@@H](C)C(N)=O)[C@@H](C)O)[C@@H](C)O (Ac-DTTPA-NH2) | 46 | 43
4 | CC(=O)N[C@@H](CO)C(=O)N1CCC[C@H]1C(=O)N[C@@H](Cc1ccc(O)cc1)C(=O)N[C@@H](CO)C(=O)N[C@@H](CO)C(=O)N[C@@H](CC(=O)O)C(=O)N[C@H](C(=O)N[C@H](C(=O)N1CCC[C@H]1C(=O)N[C@@H](C)C(N)=O)[C@@H](C)O)[C@@H](C)O (Ac-SPYSSDTTPA-NH2) | 69 | 51
5 | C[C@H](NC(=O)[C@@H]1CCCN1C(=O)[C@@H](NC(=O)[C@@H](NC(=O)[C@H](CC(=O)O)NC(=O)[C@@H](N)CO)[C@@H](C)O)[C@@H](C)O)C(=O)O (H-SDTTPA-OH) | 4 | 9
6 | C[C@H](NC(=O)[C@@H]1CCCN1C(=O)[C@@H](NC(=O)[C@@H](NC(=O)[C@H](CC(=O)O)NC(=O)[C@H](CO)NC(=O)[C@@H](N)CO)[C@@H](C)O)[C@@H](C)O)C(=O)O (H-SSDTTPA-OH) | 22 | 22
7 | C[C@H](NC(=O)[C@@H]1CCCN1C(=O)[C@@H](NC(=O)[C@@H](NC(=O)[C@H](CC(=O)O)NC(=O)[C@H](CO)NC(=O)[C@H](CO)NC(=O)[C@@H](N)Cc1ccc(O)cc1)[C@@H](C)O)[C@@H](C)O)C(=O)O (H-YSSDTTPA-OH) | 34 | 41
8 | C[C@H](NC(=O)[C@@H]1CCCN1C(=O)[C@@H](NC(=O)[C@@H](N)[C@@H](C)O)[C@@H](C)O)C(=O)O (H-TTPA-OH) | 0 | 0
